Patent publication US20240409482A1, “Novel Compound and Organic Light Emitting Device Comprising the Same” (LG Chem, Ltd., priority 2022, published 2024)

test: Solubility measurement in cyclohexanone; format: physicochemical; set-up: key to Solubility (1.3 wt %): “O” means that the compound was easily dissolved in cyclohexanone; “A” means that the compound was dissolved in cyclohexanone at 80° C.; “X” means that the compound is not soluble in cyclohexanone; settings: cyclohexanone, concentration of 1.3 wt %, room temperature
Protocol: It was confirmed whether each of Compounds 1 to 14, Compound A and Compound B prepared in Preparation Examples could be dissolved in cyclohexanone at a concentration of 1.3 wt % at 25° C., and the results are shown in Table 1 below. At this time, “O” means that the compound was easily dissolved in cyclohexanone, “A” means that the compound was dissolved in cyclohexanone at 80° C., and “X” means that the compound is not soluble in cyclohexanone.

| Structure (SMILES) | Solubility in cyclohexanone, result in words |
| --- | --- |
| c1ccc(-c2c3ccccc3c(-c3ccc(-c4ccc5cc(-c6ccc7cc(-c8c9ccccc9c(-c9ccccc9)c9ccccc89)ccc7c6)ccc5c4)cc3)c3ccccc23)cc1 [Compound A] | could not be dissolved at room temperature |
| c1ccc2c(-c3ccc(-c4c5ccccc5c(-c5ccc(-c6cccc7c(-c8cccc9ccc(-c%10ccc(-c%11c%12ccccc%12c(-c%12cccc%13ccccc%12%13)c%12ccccc%11%12)cc%10)cc89)cccc67)cc5)c5ccccc45)cc3)cccc2c1 [Compound B, reference compound] | could not be dissolved at room temperature |

same assay, conditions: in cyclohexanone at a concentration of 1.3 wt % at 25° C.

| Solubility (1.3 wt %) | Structure (SMILES) |
| --- | --- |
| ◯ | c1cc(-c2cccc3ccc(-c4ccc5cccc(-c6c7ccccc7c(-c7ccc8oc9ccccc9c8c7)c7ccccc67)c5c4)cc23)cc(-c2c3ccccc3c(-c3ccc4ccccc4c3)c3ccccc23)c1 [Compound 7] |
| ◯ | c1ccc2cc(-c3c4ccccc4c(-c4ccc(-c5cccc6ccc(-c7ccc8cccc(-c9c%10ccccc%10c(-c%10ccc%11ccccc%11c%10)c%10ccccc9%10)c8c7)cc56)cc4)c4ccccc34)ccc2c1 [Compound 1] |
| ◯ | c1cc(-c2ccc(-c3c4ccccc4c(-c4cccc5ccccc45)c4ccccc34)cc2)c2ccc(-c3ccc4c(-c5c6ccccc6c(-c6ccc7oc8ccccc8c7c6)c6ccccc56)cccc4c3)cc2c1 [Compound 12] |
| X | c1ccc(-c2c3ccccc3c(-c3ccc(-c4ccc5cc(-c6ccc7cc(-c8c9ccccc9c(-c9ccccc9)c9ccccc89)ccc7c6)ccc5c4)cc3)c3ccccc23)cc1 [Compound A] |
| ◯ | c1ccc2cc(-c3c4ccccc4c(-c4ccc(-c5cccc6cc(-c7ccc8c(-c9c%10ccccc%10c(-c%10ccc%11ccccc%11c%10)c%10ccccc9%10)cccc8c7)ccc56)cc4)c4ccccc34)ccc2c1 [Compound 11] |
| ◯ | c1cc(-c2cccc3ccc(-c4ccc5cccc(-c6c7ccccc7c(-c7ccc8ccccc8c7)c7ccccc67)c5c4)cc23)cc(-c2c3ccccc3c(-c3cccc4ccccc34)c3ccccc23)c1 [Compound 4] |
| ◯ | c1cc(-c2ccc(-c3c4ccccc4c(-c4cccc5ccccc45)c4ccccc34)cc2)c2cc(-c3ccc4cccc(-c5c6ccccc6c(-c6ccc7oc8ccccc8c7c6)c6ccccc56)c4c3)ccc2c1 [Compound 8] |
| ◯ | c1cc(-c2cccc3ccc(-c4ccc5cccc(-c6c7ccccc7c(-c7ccc8ccccc8c7)c7ccccc67)c5c4)cc23)cc(-c2c3ccccc3c(-c3ccc4ccccc4c3)c3ccccc23)c1 [Compound 5] |
| Δ | c1ccc2c(-c3ccc(-c4c5ccccc5c(-c5ccc(-c6cccc7c(-c8cccc9ccc(-c%10ccc(-c%11c%12ccccc%12c(-c%12cccc%13ccccc%12%13)c%12ccccc%11%12)cc%10)cc89)cccc67)cc5)c5ccccc45)cc3)cccc2c1 [Compound B, reference compound] |
| ◯ | c1cc(-c2ccc(-c3c4ccccc4c(-c4cccc5ccccc45)c4ccccc34)cc2)c2cc(-c3ccc4cccc(-c5c6ccccc6c(-c6cccc7oc8ccccc8c67)c6ccccc56)c4c3)ccc2c1 [Compound 6] |
| ◯ | c1ccc2cc(-c3c4ccccc4c(-c4ccc5ccc(-c6ccc7ccc(-c8c9ccccc9c(-c9ccc(-c%10cccc%11ccccc%10%11)cc9)c9ccccc89)cc7c6)cc5c4)c4ccccc34)ccc2c1 [Compound 10] |
| ◯ | c1ccc2c(-c3c4ccccc4c(-c4ccc(-c5ccc6ccc(-c7ccc8ccc(-c9c%10ccccc%10c(-c%10ccc%11oc%12ccccc%12c%11c%10)c%10ccccc9%10)cc8c7)cc6c5)cc4)c4ccccc34)cccc2c1 [Compound 9] |
| ◯ | c1ccc2cc(-c3ccc(-c4c5ccccc5c(-c5cccc6ccc(-c7ccc8cccc(-c9c%10ccccc%10c(-c%10ccc%11ccccc%11c%10)c%10ccccc9%10)c8c7)cc56)c5ccccc45)cc3)ccc2c1 [Compound 2] |
| ◯ | c1ccc2cc(-c3c4ccccc4c(-c4cccc5ccc(-c6ccc7cccc(-c8c9ccccc9c(-c9ccc(-c%10cccc%11ccccc%10%11)cc9)c9ccccc89)c7c6)cc45)c4ccccc34)ccc2c1 [Compound 3] |
